In paper PMC4775937, “Combination Effects of Antimicrobial Peptides” (Antimicrobial Agents and Chemotherapy, 2016):
≈ marks a conversion by molar mass, not a printed value. Read-outs that look alike come from different tables or passages of the source. Ends that are not written are not given here.

Tests used:
Escherichia coli MG1655 [1] = type: cell-based
Description: (§1) Escherichia coli MG1655 was grown in Luria-Bertani (LB) broth at 37°C with aeration at 220 rpm in 50-ml tubes. Two hundred microliters of overnight culture was resuspended into 15 ml fresh LB broth, cultured under the same conditions for an additional 2 h, and then used for subsequent assays. Mueller-Hinton (MH) broth was used for the assay of MICs and time-killing curves.
According to a standard protocol ([35]), stock solutions of AMPs were diluted in MH broth and then diluted in 96-well plates with a 2-fold gradient, that is, from 0.25 μg/ml to 128 μg/ml. All the gradients of antibiotics were from 0.02 μg/ml to 50 μg/ml, except that the gradient of ciprofloxacin was from 0.002 μg/ml to 1 μg/ml. Approximately 5 × 10^5 log-phase bacteria were added to each well. A positive control containing MH broth and bacteria and a negative control containing only MH broth were included in each plate, and plates were incubated at 37°C overnight.

Escherichia coli MG1655 [2] = test: Killing curves fitted to the Hill function (pharmacodynamic parameters); type: cell-based; settings: brackets = 95% confidence interval
Description: as §1
Thus, Loewe additivity would result in a MIC of any one combination equal to the MIC of the individual drugs (see equations 5 and 6). Thus, 21 two-AMP combinations and 20 three-AMP combinations were generated. An AMP(s) was diluted, starting with 100× MIC, in a 96-well plate to form a 2-fold gradient of concentrations, and 2 × 10^6 log-phase bacteria were added to a total volume of 100 μl. The plates were incubated at 37°C. Killing was assessed within 1 h, as killing by AMPs is very fast ([36], [37]). Ten microliters of a mixture of AMPs and bacteria was taken out every 20 min and then immediately diluted in saline solution and plated on the solid agar plates. These solid agar plates were transferred into a 37°C incubator and cultured overnight for CFU determination. The limit of detection in our system is 100 CFUs.
To model the killing curve, the relationship between the concentration of AMP(s) and the killing and/or growth rate of exposed bacteria, we used a Hill function ([26]): (1) μ(a)=Emax (a/EC50)^κ/1+(a/EC50)^κ Here, μ(a) is the killing rate at a given concentration of AMP(s); a is a given concentration; Emax is the maximal killing rate of the given AMP(s). κ is the Hill coefficient. We then defined growth rate ψ(a) as follows: (2) ψ(a)=ψmax −μ(a) Here, ψmax is the maximal growth rate of bacteria without AMP(s). The maximum effect of AMP(s) is defined by (3) Emax =ψmax −ψmin Thus, the effect of AMP(s) in a given concentration, μ(a), can be rewritten as (4) μ(a)=(ψmax −ψmin )(a/zMIC)^κ/(a/zMIC)^κ−ψmin /ψmax zMIC is the estimated MIC. Growth rate and killing rate of bacteria are estimated from the time-kill curves as the change of CFU over time by using generalized linear regression. […]

[3] = E. coli MG1655, MH broth, 96-well plates, 2-fold gradient 0.25 to 128 μg/ml, approx. 5 × 10^5 log-phase bacteria per well, 37°C overnight

Molecule	MIC (Escherichia coli MG1655 [1]; [3]) [µg/mL]	also measured
GIGKFLKKAKKFGKAFVKILKK-NH2 [Pex, pexiganan]	2	–
FKRIVQRIKDFLR [LL, LL 17-29]	–	MIC (Escherichia coli MG1655 [1]; MG1655, 2 h): 16 µg/mL
KWKLFKKIEKVGQNIRDGIIKAGPAVAVVGQATQIAK-NH2 [Cec, Cecropin A]	1	κ (lower,upper) (Escherichia coli MG1655 [2]; Hill coefficient (steepness of pharmacodynamic curve), Hill function fit (MCMC) of time-kill data, E. coli MG1655, 37°C, within 1 h): 6.02(5.17,6.84); zMIC (lower,upper) (Escherichia coli MG1655 [2]; estimated MIC from Hill function fit (MCMC) of time-kill data, 2-fold gradient from 100× MIC, 2 × 10^6 log-phase bacteria in 100 μl, 37°C, CFU every 20 min within 1 h, combinations 1:1 or 1:1:1 by volume): 0.32(0.28,0.37) times of original MIC; ψmin (lower,upper) (Escherichia coli MG1655 [2]; minimal growth rate of bacteria, Hill function fit (MCMC) of time-kill data, E. coli MG1655, 37°C, within 1 h): -5.83(-5.89,-5.77)
CC[C@H](C)[C@H](N)C(=O)N[C@@H](CC(C)C)C(=O)N1CCC[C@H]1C(=O)N[C@@H](Cc1c[nH]c2ccccc12)C(=O)N[C@@H](CCCCN)C(=O)N[C@@H](Cc1c[nH]c2ccccc12)C(=O)N1CCC[C@H]1C(=O)N[C@@H](Cc1c[nH]c2ccccc12)C(=O)N[C@@H](Cc1c[nH]c2ccccc12)C(=O)N1CCC[C@H]1C(=O)N[C@@H](Cc1c[nH]c2ccccc12)C(=O)N[C@@H](CCCNC(=N)N)C(=O)N[C@@H](CCCNC(=N)N)C(N)=O [Ind, Indolicidin]	4 (≈ 2.1 µM)	–
GNNRPVYIPQPRPPHPRL [Api, Apidaecin IB]	4	–
